Reference: PubChem BioAssay (NCI)
“And” between values parts separate entries of the source, which are not always exact repeats. Identical values can stand only once.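 Tested at 5 concentrations; 48 h exposure; 96-well plates; endpoints linearly interpolated, else capped at highest concentration. Here, GI50 denotes the concentration required for 50% inhibition of growth. At the TGI there is no net growth.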

Legend:
Test in all cases: NCI tumour cell line growth inhibition, 48 h
KM20L2 colon = test system: KM20L2 colon
LXFL 529 NSCLC = test system: LXFL 529 NSCLC
RXF-631 renal = test system: RXF-631 renal
SNB-78 CNS = test system: SNB-78 CNS
XF 498 CNS = test system: XF 498 CNS
DLD-1 colon = test system: DLD-1 colon
DMS 114 small cell lung = test system: DMS 114 small cell lung
HOP-18 NSCLC = test system: HOP-18 NSCLC
P388/ADR leukemia = test system: P388/ADR leukemia
SN12K1 renal = test system: SN12K1 renal

SMILES | TGI (KM20L2 colon) | TGI (LXFL 529 NSCLC) | TGI (RXF-631 renal) | TGI (SNB-78 CNS) | TGI (XF 498 CNS) | TGI (DLD-1 colon) | TGI (DMS 114 small cell lung) | TGI (HOP-18 NSCLC) | GI50 (DLD-1 colon) | GI50 (HOP-18 NSCLC) | GI50 (P388/ADR leukemia) | TGI (P388/ADR leukemia) | GI50 (SN12K1 renal) | TGI (SN12K1 renal) | GI50 (SNB-78 CNS)
CCN(CC)/[N+]([O-])=N/O | > 100 µM | > 100 µM | > 100 µM | > 100 µM | > 100 µM | – | – | – | – | – | – | – | – | – | –
O=c1c(O)cccn1C1OC(CO)C(O)C1O (configuration not stated) | > 100 µM | > 100 µM | > 100 µM | > 100 µM | – | > 100 µM | > 100 µM | > 100 µM | – | – | – | – | – | – | –
CCC1(OC(=O)CN)C(=O)OCc2c1cc1n(c2=O)Cc2cc3cc4c(cc3nc2-1)OCO4 (configuration not stated) | – | – | – | 81.8 µM | – | 40.5 µM and > 100 µM | – | 2.63 µM and 2.24 µM | 0.278 µM and 0.203 µM | 0.166 µM and 0.0534 µM | < 0.01 µM | < 0.01 µM | < 0.01 µM | 0.225 µM and 1.04 µM | 0.468 µM
Cn1c(=O)n(CC2CS2)c2ccccc21 (configuration not stated) | > 100 µM | > 100 µM | – | – | > 100 µM | > 100 µM | > 100 µM | – | – | – | – | – | – | – | –
